Patent US11434205B2, “Substituted imidazole carboxylate derivatives and the use thereof” (priority 2018, dated 2022)
pEC50: −log10 of the molar value. Read-outs that look alike come from different tables or passages of the source.

Assays:
[1] = tested on: secretion of cortisol, H295R cell line; experiment: cells; format: cell-based; details: for pEC50: read-out: EC50 (Cortisol)
Experimental: (§1) The Effects of the Compounds on Adrenocortical Function In Vitro Test
(§2) Then secretion of the cortisol and corticosterone in the supernatant, was measured using HPLC-MS/MS method to determine whether the compounds of the present invention had adrenotoxic potential.

[2] = tested on: secretion of corticosterone, H295R cell line; experiment: cells; format: cell-based; details: for pEC50: read-out: EC50 (Corticosterone)
Experimental: as §1, §2

[3] = tested on: rats; format: in vivo, rat; details: rats of the MAP/HR figures, 2×ED50, tail vein
[4] = tested on: rats; format: in vivo, rat; details: for recovery time of the test animals' righting reflex: rats of the MAP/HR figures, 2×ED50, tail vein, same value in min
Experimental: The Effects of the Compounds on the Circulatory Function were Measured in Rats Using a Small Animal Implanted Physiological Signal Telemetry System
The anesthetic activity of the compounds was assessed in rats using a LORR assay and the up and down method was used to determine ED50. […] A small animal implantable physiological signal telemetry system from DSI (Data Science International, Inc.) was used to measure the changes in heart rate (HR) and blood pressure in rats during 30 min after administration. Then mean arterial pressure (MAP) and HR were used as representative indicators to determine hemodynamic stability of the compounds of the present invention in rats.
A small animal implantable physiological signal telemetry system from DSI (Data Science International, Inc.) including implants (RATHD-521, DSI, United States), receiver boards (RPC-1, DSI, United States), signal conversion devices (DEM, DSI, USA), perfusion glue (DSI, USA), fibrin membrane (DSI, USA), etc.
First, animal models were established. A left ventricular catheter, an abdominal aortic catheter and ECG wires were placed into rats. At least one week after surgery, data were recorded.
Administration procedure: rats were put into a restraint device with a 20 G indwelling catheter placed into a lateral tail vein. After administration of 0.2 mL heparin, a pre-filled extension tube was attached and taped to the tail vein to secure the extension tube. Then the rats were removed from the restraint device to a cage before placing them together on the signal receiver. […] Finally, the pharmacological effects, adverse reactions, and behavioural manifestations of the rats were observed and recorded
Data collection: After setting the data collection parameters on the software, the power of the implant was turned on to start data collection. In this experiment, data recording frequency was set to 15 s. Data collection was continuously recorded for 30 min before and after administration of the drugs in rats. After data acquisition, the test was stopped.

[5] = tested on: rats; details: for Recovery time after stopping infusion: after 1 hour infusion at 2×MIR; for Adverse reactions: Tremor (incidence): continuous infusion 2×MIR; for Onset time: emulsion, continuous infusion at 2×MIR
Experimental: Pharmacological Effects of the Compounds on Continuous Infusion in Rats
Adult male Sprague-Dawley rats with body weight ranging from 250 to 300 gm were selected for continuous infusion test. […] Time to recovery of righting reflex from stopping infusion, and time to fully awake from stopping infusion were recorded.

[6] = H295R cell line, 0.1-10000 nM, HPLC-MS/MS, Table E3
[7] = H295R cell line, 0.1-10000 nM, HPLC-MS/MS, Table D3

| SMILES | pEC50 ([1]; Homo sapiens, NCI-H295R) | pEC50 ([2]; Homo sapiens, NCI-H295R) | recovery time of the test animals' righting reflex [3] [s] | recovery time of the test animals' righting reflex [4] [min] | further results |
| --- | --- | --- | --- | --- | --- |
| CC(=O)C1(COC(=O)c2cncn2[C@H](C)c2ccccc2)CC1 [Compound C4] | < 6.00 | < 6.00 | – | – | Cortisol as an indicator to determine the presence of inhibition ([1]; H295R, Table C3): 0; Corticosterone as an indicator to determine the presence of inhibition ([2]; H295R, Table C3): 0 |
| C/C(OC(=O)c1c(Cl)nc(Cl)n1[C@H](C)c1ccccc1)=C1\CCCC1=O [Compound E146] | < 5.00 | < 5.00 | 201 | 3.35 | Cortisol as an indicator to determine the presence of inhibition [1, 6]: 0; Corticosterone as an indicator to determine the presence of inhibition [2, 6]: 0 |
| COCC1(COC(=O)c2c(C(F)(F)F)ncn2[C@H](C)c2ccccc2)CCC1 [Compound E157] | < 5.00 | < 5.00 | 182 | 3.03 | Cortisol as an indicator to determine the presence of inhibition [1, 6]: 0; Corticosterone as an indicator to determine the presence of inhibition [2, 6]: 0 |
| C=CCC1(OC(=O)c2cncn2[C@H](C)c2ccccc2)COC1 [Compound D41] | < 5.00 | < 5.00 | 355 | 5.92 | Cortisol as an indicator to determine the presence of inhibition [1, 7]: 0; Corticosterone as an indicator to determine the presence of inhibition [2, 7]: 0 |
| C=C=CC1(OC(=O)c2c(C(F)(F)F)ncn2[C@H](C)c2ccccc2)COC1 [Compound E163] | – | – | 95 | 1.58 | Cortisol as an indicator to determine the presence of inhibition [1, 6]: 0; pEC50 [1, 6]: < 5.00; Corticosterone as an indicator to determine the presence of inhibition [2, 6]: 0; pEC50 [2, 6]: < 5.00 |
| CCOC(=O)c1c(C(F)(F)F)ncn1[C@H](C)c1ccccc1 [Compound E164] | < 5.00 | < 5.00 | 77 | 1.28 | Cortisol as an indicator to determine the presence of inhibition [1, 6]: 0; Corticosterone as an indicator to determine the presence of inhibition [2, 6]: 0 |
| CC(C)c1cccc(C(C)C)c1O [propofol, reference compound] | – | – | 645 | 10.75 | effect on the circulatory function (MAP, HR) ([4]; rats, 2×ED50, 30 min after administration): significant inhibition of the circulatory function |
| CC(=O)C1(COC(=O)c2cncn2[C@H](C)c2ccccc2)CCC1 [Compound C11] | < 6.00 | < 6.00 | – | – | Cortisol as an indicator to determine the presence of inhibition ([1]; H295R, Table C3): 0; Corticosterone as an indicator to determine the presence of inhibition ([2]; H295R, Table C3): 0 |
| CC(=O)C1(OC(=O)c2cncn2[C@H](C)c2ccccc2)CCC1 [Compound C2] | – | – | 182 | 3.03 | – |
| C[C@H](c1ccccc1)n1cncc1C(=O)SC1CCC1 [Compound A29] | – | – | 255 | 4.25 | – |
| CC(=O)C(C)(C)OC(=O)c1cncn1[C@H](C)c1ccccc1 [Compound C8] | – | – | 170 | 2.83 | – |
| CC(=O)C(C)(C)SC(=O)c1cncn1[C@H](C)c1ccccc1 [Compound C22] | – | – | 93 | 1.55 | – |
| C/C=C/C1(OC(=O)c2cncn2[C@H](C)c2ccccc2)CCC1 [Compound D20] | < 5.00 | < 5.00 | – | – | Cortisol as an indicator to determine the presence of inhibition [1, 7]: 0; Corticosterone as an indicator to determine the presence of inhibition [2, 7]: 0 |
| C[C@H](c1ccccc1)n1cncc1C(=O)SCC1CC(F)(F)C1 [Compound A45] | – | – | 200 | 3.33 | – |
| C=C(OCC)C1(OC(=O)c2cncn2[C@H](C)c2ccccc2)COC1 [Compound D2] | < 6.00 | < 6.00 | 355 | 5.92 | Cortisol as an indicator to determine the presence of inhibition [1, 7]: 0; Corticosterone as an indicator to determine the presence of inhibition [2, 7]: 0 |
| C[C@H](c1ccccc1)n1cncc1C(=O)OCC1(CO)CC1 [Compound A7] | – | – | 110 | 1.83 | Recovery time after stopping infusion [5]: 7 to 9 min; Adverse reactions: Tremor (incidence) [5]: Tremor (4/6); Onset time [5]: 2 to 3 min |

| SMILES | pEC50 ([1]; Homo sapiens, NCI-H295R) | pEC50 ([2]; Homo sapiens, NCI-H295R) | recovery time of the test animals' righting reflex [3] [s] | recovery time of the test animals' righting reflex [4] [min] | further results |
| --- | --- | --- | --- | --- | --- |
| C[C@H](c1ccccc1)n1cncc1C(=O)OCC[S+](C)[O-] (stereo partly drawn) [Compound C10] | < 5.00 | < 5.00 | – | – | Cortisol as an indicator to determine the presence of inhibition ([1]; H295R, Table C3): 0; Corticosterone as an indicator to determine the presence of inhibition ([2]; H295R, Table C3): 0 |
| CC(=O)COC(=O)c1cncn1[C@H](C)c1ccccc1 [Compound C6] | – | – | 120 | 2.0 | – |
| C=CC1(OC(=O)c2cncn2[C@H](C)c2ccccc2)CCCCC1 [Compound D35] | < 6.00 | < 6.00 | 200 | 3.33 | Cortisol as an indicator to determine the presence of inhibition [1, 7]: 0; Corticosterone as an indicator to determine the presence of inhibition [2, 7]: 0 |
| CC(=O)CCSC(=O)c1cncn1[C@H](C)c1ccccc1 [Compound C23] | – | – | 206 | 3.43 | – |
| COCC1(COC(=O)c2c(Cl)ncn2[C@H](C)c2ccccc2)CCC1 [Compound E102] | < 5.00 | < 5.00 | 288 | 4.80 | Cortisol as an indicator to determine the presence of inhibition [1, 6]: 0; Corticosterone as an indicator to determine the presence of inhibition [2, 6]: 0 |
| C[C@H](c1ccccc1)n1cncc1C(=O)OC[S+](C)[O-] (stereo partly drawn) [Compound C9] | < 5.00 | < 5.00 | – | – | Cortisol as an indicator to determine the presence of inhibition ([1]; H295R, Table C3): 0; Corticosterone as an indicator to determine the presence of inhibition ([2]; H295R, Table C3): 0 |
| C[C@H](c1ccccc1)n1cncc1C(=O)OCC1(C=O)COC1 [Compound C12] | < 6.00 | < 6.00 | – | – | Cortisol as an indicator to determine the presence of inhibition ([1]; H295R, Table C3): 0; Corticosterone as an indicator to determine the presence of inhibition ([2]; H295R, Table C3): 0 |
| C[C@H](c1ccccc1)n1cncc1C(=O)OCC1CC1 [Compound A15] | – | – | 193 | 3.22 | Recovery time after stopping infusion [5]: 12 to 15 min; Adverse reactions: Tremor (incidence) [5]: Tremor (5/6); Onset time [5]: 2 to 3 min |
| C=CC#CC(C)OC(=O)c1c(Cl)ncn1[C@H](C)c1ccccc1 (stereo partly drawn) [Compound E121] | – | – | 184 | 3.07 | – |
| CC(=O)C1(COC(=O)c2cncn2[C@H](C)c2ccccc2)COC1 [Compound C5] | < 6.00 | < 6.00 | – | – | Cortisol as an indicator to determine the presence of inhibition ([1]; H295R, Table C3): 0; Corticosterone as an indicator to determine the presence of inhibition ([2]; H295R, Table C3): 0 |
| CSCC1(CSC(=O)c2cncn2[C@H](C)c2ccccc2)CCC1 [Compound A46] | < 7.00 | < 7.00 | – | – | Cortisol as an indicator to determine the presence of inhibition ([1]; H295R, Table A3): 0; Corticosterone as an indicator to determine the presence of inhibition ([2]; H295R, Table A3): 0 |
| C[C@H](c1ccccc1)n1cncc1C(=O)OC(C)(C)C1OC1(C)C (stereo partly drawn) [Compound B25] | < 6.00 | – | – | – | Cortisol as an indicator to determine the presence of inhibition ([1]; H295R, Table B3): 0; Corticosterone as an indicator to determine the presence of inhibition ([2]; H295R, Table B3): 0 |
| C[C@H](c1ccccc1)n1cncc1C(=O)SCC1CCC1 [Compound A27] | – | – | 126 | 2.10 | – |
| CC(=O)CC(C)(C)OC(=O)c1cncn1[C@H](C)c1ccccc1 [Compound C13] | < 5.00 | < 5.00 | – | – | Cortisol as an indicator to determine the presence of inhibition ([1]; H295R, Table C3): 0; Corticosterone as an indicator to determine the presence of inhibition ([2]; H295R, Table C3): 0 |
| C[C@H](c1ccccc1)n1cnc(F)c1C(=O)OC1(C=C=S)CCCCC1 [Compound E23] | – | – | 92 | 1.53 | – |
